# Laboratory results from patent US20240207250A1, “AGENT FOR PROMOTING LIPID REDUCTION” (MITSUBISHI GAS CHEMICAL COMPANY, INC., priority 2021, published 2024).
# What was measured:
# Type in all cases: in vivo
# [1] = test system: daphnids (Daphnia magna); assay: Measurement of fat mass of daphnids by Nile red fluorescence (lipid reduction promotion test); settings: for Body Fat Mass vs Comparative Example 1 (%), Average: Nile red fluorescence intensity, Comparative Example 1 (no IPQ) = 100, 5 daphnids, 4 days after addition to breeding water, H-IPQ 50 μM or 200 μM, Arg-IPQ 80 mg/L, Leu-IPQ 80 mg/L, ECGC 1 mg/L, carnitine 2 mg/L; for body fat mass as compared with the control (Comparative Example 1), in words: daphnids bred 4 days with substance in breeding water
# Procedure: In the present examples, […] (scientific name: Daphnia magna) were used in a lipid reduction promotion test. As chlorella (scientific name: Chlorella vulgaris) used as a feed for the […], a product of […] Center LLC was used. Specifically, parent […] bred in a water tank at 22° C. under a day cycle of an 8/16-hour light/dark cycle. The chlorella used as the feed was supplied in an amount of 8×10^7 on Monday, Wednesday, and Friday. Breeding water held in the water tank was exchanged at a frequency of once a week. Under these breeding conditions, child […] born from the parent […] used in the following examples. 10 child […] bred in 500 mL of mineral water (at 22° C.) under a day cycle of an 8/16-hour light/dark cycle. […] 10 child […] bred in 500 mL of mineral water (at 22° C.) under a day cycle of an 8/16-hour light/dark cycle. […] 10 child […] bred in 500 mL of mineral water (at 22° C.) under a day cycle of an 8/16-hour light/dark cycle. […] 10 child […] bred in 500 mL of mineral water (at 22° C.) under a day cycle of an 8/16-hour light/dark cycle. […] 10 child […] bred in 500 mL of mineral water (at 22° C.) under a day cycle of an 8/16-hour light/dark cycle. […] 10 child […] bred in 500 mL of mineral water (at 22° C.) under a day cycle of an 8/16-hour light/dark cycle. […] The fat mass was measured in accordance with Non Patent Literature 4. […] Thereafter, the […] washed with water, and taken out. Water was added thereto in an amount of 300 μL per […], and the resultant was ground by applying ultrasonic waves for 15 minutes. The thus obtained ground liquid was centrifuged to collect a supernatant. The resultant was measured for a fluorescence intensity through 485 nm excitation/535 nm detection using a plate reader. This measurement operation was performed on 5 […].
# [2] = test system: daphnids (Daphnia magna); assay: Measurement of body length of daphnids; settings: for Body Length (mm), Average: daphnids bred 4 days with substance, Arg-IPQ 80 mg/L, Leu-IPQ 80 mg/L, ECGC 1 mg/L, carnitine 2 mg/L, control 2.37 mm; for body length as compared with the control (Comparative Example 1), in words: daphnids bred 4 days with substance in breeding water
# [3] = test system: daphnids (Daphnia magna); assay: Caloric restriction equivalent amount from correlation between amount of feed and fat mass; settings: calculated from fat mass (fluorescence intensity) with feed/fat mass regression line; Comparative Example 1 = 0
# Description: Then, the logarithm of the amount of the feed and the fat mass (fluorescence intensity) obtained after the breeding were plotted as illustrated in FIG. 2 (n=5). When an approximate straight line was drawn on the plots, the approximate straight line was represented by the following equation, and the correlation coefficient was R=0.996. [formula] [formula] [formula] This equation of the approximate straight line can be regarded as a relational expression between the logarithm of the amount of the feed, namely, calorie intake, and the fat mass (fluorescence intensity) after the breeding.
# [4] = test system: daphnids (Daphnia magna); assay: Evaluation of movement capability of daphnids (video analysis of moving distance); settings: for moving distance for 30 seconds, Daphnid 1: individual Daphnid 1, control 20.01 cm; for moving distance for 30 seconds, Daphnid 2: individual Daphnid 2, control 22.67 cm; for moving distance for 30 seconds, Daphnid 3: individual Daphnid 3, control 18.62 cm; for amount of exercise improved (times vs control): moving distance relative to control daphnids; for moving distance for 30 seconds, Average ± Standard Deviation: three daphnids, control 20.46 ± 2.06 cm
# Procedure: The daphnids bred under condition of no IPQ described in Comparative Example 1 (control), and the daphnids bred in the presence of H-IPQ, Arg-IPQ, and Leu-IPQ respectively described in Examples 1 to 3 were used. 20 mL of mineral water was put in each of four 100 mm-glass petri dishes, into each of which one daphnid bred in Comparative Example 1 and Examples 1 to 3 was transferred. These petri dishes were placed to be adjacent to one another, and the movement for 1 minute of the daphnids was recorded. This operation was repeated three times using different individuals. Then, Kinovea video analysis software was used to analyze a moving distance for 30 seconds of each daphnid.
# It is noted that the daphnids were in a state of always moving in the test, which is regarded as a state of exercise with an intensity of 3 METs or more in terms of human exercise intensity.
Structure (SMILES),"Body Fat Mass vs Comparative Example 1 (%), Average [1]","body fat mass as compared with the control (Comparative Example 1), in words [1]","Body Length (mm), Average [2]",Caloric Restriction Equivalent Amount (0 meaning no caloric restriction) [3],"body length as compared with the control (Comparative Example 1), in words [2]","moving distance for 30 seconds, Daphnid 1 [4]","moving distance for 30 seconds, Daphnid 2 [4]","moving distance for 30 seconds, Daphnid 3 [4]",amount of exercise improved (times vs control) [4],"moving distance for 30 seconds, Average ± Standard Deviation [4]"
"O=C(O[C@@H]1Cc2c(O)cc(O)cc2O[C@@H]1c1cc(O)c(O)c(O)c1)c1cc(O)c(O)c(O)c1 [Comparative Example 2, Epigallocatechin Gallate, reference compound]",102.0%,neither increased not reduced,2.43 mm,−7%,–,–,–,–,–,–
"C[N+](C)(C)CC(O)CC(=O)[O-] (stereo not shown) [Comparative Example 3, carnitine, reference compound]",133.8%,increased,2.82 mm,−231%,–,–,–,–,–,–
"O=C([O-])c1cc2c(=O)c3ncn4c(C(=O)[O-])cc(C(=O)[O-])c(c2[nH]1)c34.[Na+].[Na+].[Na+] [Example 1, glycine residue IPQ trisodium]",60.3%,reduced,–,73%,not grown to be very large,24.23 cm,21.43 cm,27.85 cm,about 1.2 times,24.50 ± 3.22 cm
"N=C(N)NCCCc1nc2c(=O)c3cc(C(=O)O)[nH]c3c3c(C(=O)[O-])cc(C(=O)[O-])n1c23.[Na+].[Na+] [Example 2, Arginine Residue IPQ Disodium]",79.7%,reduced,2.64 mm,45%,grown to be larger,25.33 cm,30.35 cm,30.47 cm,1.4 times,28.72 ± 2.93 cm
"CC(C)Cc1nc2c(=O)c3cc(C(=O)O)[nH]c3c3c(C(=O)O)cc(C(=O)O)n1c23 [Example 3, leucine residue IPQ]",69.9%,reduced,2.52 mm,62%,grown to be larger,26.78 cm,21.56 cm,20.53 cm,1.1 times,22.96 ± 3.35 cm
